In patent US10448639B2, “Fungicidal pyrazoles” (FMC CORPORATION, priority 2009, dated 2019):

How the values were obtained:
[1] = test system: Alternaria solani; assay: Test C: tomato early blight, preventive spray on tomato seedlings, visual disease rating; conditions: tomato early blight, 100 = 100% disease control; for Test C disease control rating: 0 = no disease control relative to controls
[2] = test system: Puccinia recondita f. sp. tritici; assay: Test I: wheat leaf rust, preventive spray on wheat seedlings, visual disease rating; conditions: wheat leaf rust, 100 = 100% disease control; for Test I disease control rating: sprayed the day before inoculation, 0 = no disease control relative to controls
[3] = test system: Septoria tritici; assay: Test G: wheat leaf blotch, preventive spray on wheat seedlings, visual disease rating; conditions: wheat leaf blotch, 100 = 100% disease control
Description: General protocol for preparing test suspensions for Tests A-J: the test compounds were first dissolved in acetone in an amount equal to 3% of the final volume and then suspended at the desired concentration (in ppm) in acetone and purified water (50/50 mix by volume) containing 250 ppm of the surfactant Trem® 014 (polyhydric alcohol esters). The resulting test suspensions were then used in Tests A-J. Spraying a 200 ppm test suspension to the point of run-off on the test plants was the equivalent of a rate of 500 g/ha. Unless otherwise indicated, the rating values indicate a 200 ppm test suspension was used. (An asterisk “*” next to the rating value indicates a 40 ppm test suspension was used.)
The test suspension was sprayed to the point of run-off on wheat seedlings. The following day the seedlings were inoculated with a spore suspension of Septoria tritici (the causal agent of wheat leaf blotch) and incubated in saturated atmosphere at 24° C. for 48 h. and then the seedlings were moved to a growth chamber at 20° C. for 19 additional days, after which time visual disease ratings were made.

[4] = test system: Erysiphe graminis f sp. tritici; assay: Test J: wheat powdery mildew, preventive spray on wheat seedlings, visual disease rating; conditions: wheat powdery mildew, 100 = 100% disease control; for Test J disease control rating: sprayed the day before inoculation, 0 = no disease control relative to controls
[5] = test system: Botrytis cinerea; assay: Test B: tomato Botrytis, preventive spray on tomato seedlings, visual disease rating; conditions: tomato Botrytis, 100 = 100% disease control; for Test B disease control rating: 0 = no disease control relative to controls
[6] = test system: Septoria nodorum; assay: Test F: Septoria glume blotch, preventive spray on wheat seedlings, visual disease rating; conditions: 100 = 100% disease control; for Test F disease control rating: 0 = no disease control relative to controls
[7] = test system: Puccinia recondita f. sp. tritici; assay: Test H: wheat leaf rust, curative spray on inoculated wheat seedlings, visual disease rating; conditions: wheat leaf rust, 100 = 100% disease control; for Test H rating (% disease control): curative, 0 = no control relative to controls; for Test H disease control rating: sprayed after inoculation, 0 = no disease control relative to controls
[8] = preventive spray, 0 = no control
[9] = Septoria glume blotch on wheat, preventive spray, 0 = no control
[10] = 0 = no control relative to controls
[11] = preventive, 0 = no control relative to controls
[12] = Septoria glume blotch, 0 = no control relative to controls

| SMILES | Test C rating (% disease control) [1, 10] [%] | Test H rating (% disease control) [7] [%] | Test B rating (% disease control) [5, 10] [%] | Test I rating (% disease control) [2, 11] [%] | Test J rating (% disease control) [4, 10] [%] | Test F rating (% disease control) [6, 12] [%] | also measured |
| --- | --- | --- | --- | --- | --- | --- | --- |
| Cc1ccc(Nc2c(-c3c(F)cc(C#N)cc3F)c(C)nn2C)cc1 [compound 124] | – | – | – | – | – | – | Test C rating (% disease control) [1, 8]: 78%; Test I rating (% disease control) [2, 8]: 96%; Test G rating (% disease control) [3, 8]: 99%; Test J rating (% disease control) [4, 8]: 94%; Test B rating (% disease control) [5, 8]: 100%; Test F rating (% disease control) [6, 9]: 60% |
| Cc1nn(C)c(Nc2ccc(Cl)c(F)c2)c1-c1c(F)cc(C#N)cc1F [compound 125] | – | – | – | – | – | – | Test C rating (% disease control) [1, 8]: 67%; Test I rating (% disease control) [2, 8]: 92%; Test G rating (% disease control) [3, 8]: 99%; Test J rating (% disease control) [4, 8]: 0%; Test B rating (% disease control) [5, 8]: 100%; Test F rating (% disease control) [6, 9]: 60% |
| COc1cc(F)c(-c2c(C)nn(C)c2Oc2ccc(Br)c(OC)c2)c(F)c1 [compound 212] | 17 | 0 | 0 | – | – | – | Test G rating (% disease control) [3, 10]: 98% |
| COc1cccc(Nc2c(-c3ccc(F)cc3F)c(C)nn2C)c1Cl [compound 281] | 44 | 0 | 98 | 94 | 98 | 0 | – |
| COc1ccc(-c2c(C)nn(C)c2Nc2ccc(Cl)cc2Cl)c(Cl)c1 [compound 282] | 98 | 0 | 99 | 99 | 100 | 0 | – |
| Cc1nn(C)c(Nc2ccc(Cl)cc2Cl)c1-c1c(F)cccc1Cl [compound 283] | 65 | 9 | 99 | 99 | 100 | 0 | – |
| Cc1nn(C)c(Oc2ccc(C#N)cc2Cl)c1-c1ccc(F)cc1Br [compound 285] | 0 | 9 | 98 | 99 | 99 | 60 | – |
| Cc1nn(C)c(Nc2ccc(Cl)cc2Cl)c1-c1ccc(F)cc1Cl [compound 299] | 95 | 41 | 100 | 100 | 100 | 51 | – |
| Cc1nn(C)c(Nc2c(Cl)cc(F)cc2Cl)c1-c1ccc(F)cc1Br [compound 316] | – | – | – | – | – | – | Test C disease control rating [1]: 0%; Test I disease control rating [2]: 99%; Test H disease control rating [7]: 9%; Test J disease control rating [4]: 96%; Test B disease control rating [5]: 99%; Test F disease control rating ([6]; Septoria glume blotch on wheat): 0% |
| Cc1nn(C)c(Nc2c(F)cc(F)cc2Cl)c1-c1ccc(Cl)cc1Cl [compound 391] | – | – | – | – | – | – | Test C disease control rating [1]: 99%; Test I disease control rating [2]: 99%; Test H disease control rating [7]: 31%; Test J disease control rating [4]: 99%; Test B disease control rating [5]: 100%; Test F disease control rating ([6]; Septoria glume blotch on wheat): 73% |
| Cc1nn(C)c(Nc2c(Cl)cc(Br)cc2Cl)c1-c1ccc(F)cc1Cl [compound 403] | – | – | – | – | – | – | Test C disease control rating [1]: 0%; Test I disease control rating [2]: 100%; Test H disease control rating [7]: 99%; Test J disease control rating [4]: 99%; Test B disease control rating [5]: 99%; Test F disease control rating ([6]; Septoria glume blotch on wheat): 0% |
